Results on two compounds are retold here after patent US20070142378A1, “Method of treating restless legs syndrome and/or periodic limb movement disorder with (2s,3s) 2-(3-chlorophenyl)-3,5,5-trimethyl-2-morpholinol” (Smith Kline Beecham Corporation, priority 2003, published 2007).

Counter-ions that a name gives are not always drawn.

Data set [1] concerns the target T1, serotonin uptake, synaptosomes from rat hypothalamus (Rattus norvegicus, UniProt P31652).
T1 construct: Synaptosomes for use in obtaining in vitro uptake data were prepared from hypothalamus or striatum by gently homogenizing the tissue; from tissue; host or cells: rat hypothalamus synaptosomes
The experiment in a line: In vitro synaptosomal uptake of [3H]-serotonin. The following applies: at 30 μM. Format: biochemical. An excerpt: Similarities and differences. Molecular Pharmacology, 21: p.

The target of data set [2] is T2, noradrenaline (NA) uptake, synaptosomes from rat hypothalamus (Rattus norvegicus, UniProt Q63380).
T2 construct: Synaptosomes for use in obtaining in vitro uptake data were prepared from hypothalamus or striatum by gently homogenizing the tissue; from tissue; host or cells: rat hypothalamus synaptosomes (1100 x g supernatant)
In words: In vitro synaptosomal uptake of [3H]-NA. Format: biochemical. As to the method:
In vitro uptake was determined, as reported previously, using synaptosomes prepared from rat caudoputamen (for dopamine uptake) and hypothalamus (for NA and serotonin uptake) using [^3H]-dopamine, [^3H]-NA and [^3H]-serotonin as transport substrates, respectively. See Eckhardt, S. B., R. A. Maxwell, and R. M. Ferris, A Structure-Activity Study of the Transport Sites for the Hypothalamic and Striatal Catecholamine Uptake Systems. Similarities and differences. Molecular Pharmacology, 21: p. 374-9,1982
Synaptosomes for use in obtaining in vitro uptake data were prepared from hypothalamus or striatum by gently homogenizing the tissue in a 0.3 M sucrose/25 mM Tris pH 7.4 buffer containing iproniazid phosphate to inhibit monoamine oxidase. The homogenate was centrifuged at 1100×g at 4° C. for 10 min and the supernatant was used for uptake studies. […] Under these conditions uptake was linear with respect to both for substrate and tissue (with <5% total substrate transported). Non-specific uptake was defined as uptake at 0° C. [^3H]-substrate, which had been transported into synaptosomes, was separated from free [^3H]-substrate by filtration over GF/B filters and washing with cold Krebs-Henseleit buffer. The filters were counted for tritum in a liquid scintillation spectrometer.

Data set [3] concerns the target T3, dopamine transporter (DAT) (Homo sapiens, UniProt Q01959).
T3 construct: from tissue; host or cells: striatum of healthy male volunteers, in vivo PET with 11C-βCIT-FE
In words: Dopamine transporter (DAT) receptor occupancy study, PET with 11C-βCIT-FE. It is filed as in vivo. The following applies: for DAT receptor occupancy: Part A, healthy male volunteers, PET 2.5 hours after initiation of dosing; for average DAT receptor occupancy: Part B, 60 mg modified release oral once daily for 6 days. How it is done: The study was conducted in two parts. Part A utilized positron emission tomography (PET) to characterize the concentration-percent occupancy relationship with respect to the dopamine transporter (DAT) after dosing with intravenous compound of formula (I) to pseudo-steady-state. Part B utilized PET to evaluate the time course of occupancy at the dopamine transporter following steady-state dosing of the compound of formula (I) via a modified release oral formulation. The tracer used in this study to assess the occupancy at the DAT was ^11C-βCIT-FE.
Part A. Six healthy male volunteers each received a 20.6 mg intravenous dose of the compound of formula (I) administered via a 2-hour loading infusion followed by a 2-hour maintenance infusion to achieve pseudo-steady-state. Each subject then received two additional doses (61.8 mg and 91.2 mg) of the compound of formula (I), with each dose separated by 3 weeks. A baseline PET scan was performed between 1 and 7 days prior to first dosing with formula (I), and then each post-dose PET scan performed 2.5 hours after the initiation of each of the three dosing regimens.
The concentrate solution for infusion was formulated to contain 10 mg free base equivalent per mL as the hydrochloride salt of the compound of formula (I), and consisted of a clear, colorless solution, pH adjusted to approximately 4.5, buffered with 50 mmol citrate buffer. The product was diluted to a total volume of 250 mL with 0.9% weight-to-volume ratio (w/v) sodium chloride injection prior to being administered.
Part B. Six healthy male volunteers received 60 mg of the compound of formula (I) via a modified release oral formulation once daily for 6 days in order to achieve steady-state by the last day. Four ^11C-βCIT-FE PET scans were performed for each subject, the first between 1 and 7 days prior to dosing and the remaining three at 6, 12 and 24 hours following the final dose on Day 6. The oral formulations were uncoated tablets, containing 20 mg and 40 mg of the compound of formula (I) as the hydrochloride salt details of the formulations are set out below as Examples 6 and 7 (prepared by an analogous method to Examples 1 to 5 above).

Data set [4] relates to cell-lines expressing human monoamine transporters. The experiment in a line: Compound-induced cytotoxicity in the transporter-expressing cells. It is filed as cell-based. To be noted: at any of the concentrations causing reuptake inhibition.

T3 sequence (Q01959 whole entry): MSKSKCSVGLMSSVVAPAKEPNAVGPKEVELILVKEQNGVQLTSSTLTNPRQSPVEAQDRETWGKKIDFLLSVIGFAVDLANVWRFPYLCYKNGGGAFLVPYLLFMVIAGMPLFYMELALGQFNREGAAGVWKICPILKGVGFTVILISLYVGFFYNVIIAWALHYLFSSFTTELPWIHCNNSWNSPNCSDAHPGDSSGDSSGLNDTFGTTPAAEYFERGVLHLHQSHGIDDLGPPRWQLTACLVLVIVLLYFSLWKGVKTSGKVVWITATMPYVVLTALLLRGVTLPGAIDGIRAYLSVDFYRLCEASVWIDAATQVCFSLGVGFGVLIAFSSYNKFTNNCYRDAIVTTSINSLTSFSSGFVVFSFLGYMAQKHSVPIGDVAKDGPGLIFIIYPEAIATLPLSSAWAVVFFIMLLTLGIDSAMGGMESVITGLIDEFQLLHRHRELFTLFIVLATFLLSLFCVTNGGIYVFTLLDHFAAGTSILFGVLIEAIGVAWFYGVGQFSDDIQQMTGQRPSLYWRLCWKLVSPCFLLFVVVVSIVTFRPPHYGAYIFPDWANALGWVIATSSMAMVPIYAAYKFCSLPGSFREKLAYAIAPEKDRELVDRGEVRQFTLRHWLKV
T1 sequence (P31652 whole entry): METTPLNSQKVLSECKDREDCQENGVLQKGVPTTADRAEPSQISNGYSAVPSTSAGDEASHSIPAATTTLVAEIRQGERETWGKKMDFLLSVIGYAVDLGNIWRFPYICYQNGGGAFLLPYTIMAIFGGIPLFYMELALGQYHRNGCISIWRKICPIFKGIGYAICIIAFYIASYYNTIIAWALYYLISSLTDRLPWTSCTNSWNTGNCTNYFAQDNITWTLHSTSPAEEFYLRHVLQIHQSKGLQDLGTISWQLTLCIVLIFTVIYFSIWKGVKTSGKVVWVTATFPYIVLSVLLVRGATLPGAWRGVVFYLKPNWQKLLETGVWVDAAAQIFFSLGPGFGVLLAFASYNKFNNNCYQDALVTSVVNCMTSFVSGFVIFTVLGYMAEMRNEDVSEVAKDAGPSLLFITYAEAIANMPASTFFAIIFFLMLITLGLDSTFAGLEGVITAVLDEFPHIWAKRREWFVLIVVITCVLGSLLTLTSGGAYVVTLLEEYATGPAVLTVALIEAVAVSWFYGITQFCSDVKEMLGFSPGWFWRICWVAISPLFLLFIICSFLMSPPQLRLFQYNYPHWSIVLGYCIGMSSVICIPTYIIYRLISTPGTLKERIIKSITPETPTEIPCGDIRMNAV
T2 sequence (Q63380 1-617): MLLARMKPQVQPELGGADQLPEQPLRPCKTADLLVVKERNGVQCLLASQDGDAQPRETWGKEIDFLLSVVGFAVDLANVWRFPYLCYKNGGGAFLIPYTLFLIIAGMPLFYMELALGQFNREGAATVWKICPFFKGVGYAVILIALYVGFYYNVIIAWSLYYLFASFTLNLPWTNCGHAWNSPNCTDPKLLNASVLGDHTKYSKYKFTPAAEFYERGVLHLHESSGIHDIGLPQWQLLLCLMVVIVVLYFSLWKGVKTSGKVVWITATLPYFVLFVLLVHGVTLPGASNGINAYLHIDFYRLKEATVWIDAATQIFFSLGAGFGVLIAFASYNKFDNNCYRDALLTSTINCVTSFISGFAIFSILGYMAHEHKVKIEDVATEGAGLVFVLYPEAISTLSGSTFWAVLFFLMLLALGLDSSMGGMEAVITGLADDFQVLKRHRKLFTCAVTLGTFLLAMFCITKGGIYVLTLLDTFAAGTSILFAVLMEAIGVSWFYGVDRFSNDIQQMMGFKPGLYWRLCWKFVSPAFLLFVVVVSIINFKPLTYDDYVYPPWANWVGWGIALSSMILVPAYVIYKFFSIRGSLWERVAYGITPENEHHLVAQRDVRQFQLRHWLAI

As for `C[C@@H]1NC(C)(C)CO[C@@]1(O)c1cccc(Cl)c1` [Formula (I), (+)-(2S,3S)-2-(3-chlorophenyl)-3,5,5-trimethyl-2-morpholinol], the “inhibition of serotonin uptake” value in data set [1] is listed as “no inhibition”. Moreover, the IC50 in data set [2] was determined as 1.1 µM. For the same compound, the DAT receptor occupancy was 14±0.38% in data set [3] (20.6 mg intravenous), 37±8.0% in data set [3] (61.8 mg intravenous) and 47±6.8% in data set [3] (91.2 mg intravenous). Besides, the results for the “average DAT receptor occupancy” value in data set [3] (6 hours after the last dose) and in data set [3] (during the following 6 hours (12 hour scan)) were 29±5.3% and 27±11.3%, respectively.

As for `C[C@@H]1NC(C)(C)CO[C@@]1(O)c1cccc(Cl)c1` [Formula (I).HCl, (+)-(2S, 3S)2-(3-chlorophenyl)-3,5,5-trimethyl-2-morpholinol hydrochloride], in data set [4], the cytotoxicity result is “No cytotoxicity was observed”.
